This note sets out measurements from BindingDB's records for doi:10.1016/j.bmc.2013.03.035 (University of Poitiers, 2013).

This test is described as follows: Inhibition of bovine liver beta-glucosidase.

A word on the IC50: it is the concentration that gives 50% inhibition. A high value points to weaker potency. In turn, `CC[C@@H]1NC[C@@H](O)[C@@H](O)[C@H](O)[C@H]1O` registered an IC50 of 487 µM.
